# No end group written: not given here.
# Assays:
# Salmonella enterica (SE) = test: Salmonella infection test in chickens (body weight gain and feed conversion ratio); assay type: in vivo, chickens (broilers)
# Method: The coated-Tyr and Tyr prepared in the same manner as in Example 2-1 were added to the feed matrix having the composition presented in Table 2 so that the amount of the core material was 200 ppm, to thereby prepare a feed. Broilers at 1 day of age were introduced into a breeding facility for infection test (6 broilers/repeat and 2 repeats/test group), then Salmonella enterica (SE) was orally administered to the broilers at 2 days of age, and the test feed was fed for 21 days to evaluate the body weight gain effect and feed conversion ratio of chickens. Note that a conventional antimicrobial growth promoter, enramycin, was used as a positive control. As enramycin, a commercially available product (“Enramycin F-80” manufactured by Scientific Feed Laboratory Co., Ltd., uncoated) was used as it was.
# The results are presented with a negative control of 100. […]
# Broilers at 0 days of age were introduced into a breeding facility for infection test (6 broilers/repeat and 2 repeats/test group), then Salmonella enterica (SE) was orally administered to the broilers at 2 days of age, and the test feed was fed for 21 days to evaluate the body weight gain effect and feed conversion ratio. Note that a conventional antimicrobial growth promoter, enramycin, was used as a positive control. As enramycin, a commercially available product (“Enramycin F-80” manufactured by Scientific Feed Laboratory Co., Ltd., uncoated) was used as it was.
# [1] = system: Enterococcus faecalis AJ110149; test: Antibacterial spectrum of bacteriocin, spot-on lawn method; assay type: cell-based; set-up: key: “+” to “+++++”: indicates the strength of antibacterial effect. The more “+”, the stronger the effect.; “+” to “+++++”: indicates the strength of antibacterial effect. The more “+”, the stronger the effect.; “+” to “+++++”: indicates the strength of antibacterial effect. The more “+”, the stronger the effect.; “+” to “+++++”: indicates the strength of antibacterial effect. The more “+”, the stronger the effect.; “+” to “+++++”: indicates the strength of antibacterial effect. The more “+”, the stronger the effect.; “ND”: indicates no effect detected (not detected); conditions: Nisin A and Duramycin 1 mg/ml, others 10-fold concentrated culture supernatant of producers
# [2] = system: Lactobacillus salivarius AJ110152; test: as above; assay type: cell-based; set-up: key: “+” to “+++++”: indicates the strength of antibacterial effect. The more “+”, the stronger the effect.; “+” to “+++++”: indicates the strength of antibacterial effect. The more “+”, the stronger the effect.; “+” to “+++++”: indicates the strength of antibacterial effect. The more “+”, the stronger the effect.; “+” to “+++++”: indicates the strength of antibacterial effect. The more “+”, the stronger the effect.; “+” to “+++++”: indicates the strength of antibacterial effect. The more “+”, the stronger the effect.; “ND”: indicates no effect detected (not detected); conditions: Nisin A and Duramycin 1 mg/ml, others 10-fold concentrated culture supernatant of producers
# Escherichia coli MG1655 = test: as above; assay type: cell-based; set-up: key: “+” to “+++++”: indicates the strength of antibacterial effect. The more “+”, the stronger the effect.; “+” to “+++++”: indicates the strength of antibacterial effect. The more “+”, the stronger the effect.; “+” to “+++++”: indicates the strength of antibacterial effect. The more “+”, the stronger the effect.; “+” to “+++++”: indicates the strength of antibacterial effect. The more “+”, the stronger the effect.; “+” to “+++++”: indicates the strength of antibacterial effect. The more “+”, the stronger the effect.; “ND”: indicates no effect detected (not detected); conditions: Nisin A and Duramycin 1 mg/ml, others 10-fold concentrated culture supernatant of producers
# [3] = system: Bacteroides fragilis JCM11019; test: as above; assay type: cell-based; set-up: key: “+” to “+++++”: indicates the strength of antibacterial effect. The more “+”, the stronger the effect.; “+” to “+++++”: indicates the strength of antibacterial effect. The more “+”, the stronger the effect.; “+” to “+++++”: indicates the strength of antibacterial effect. The more “+”, the stronger the effect.; “+” to “+++++”: indicates the strength of antibacterial effect. The more “+”, the stronger the effect.; “+” to “+++++”: indicates the strength of antibacterial effect. The more “+”, the stronger the effect.; “ND”: indicates no effect detected (not detected); conditions: Nisin A and Duramycin 1 mg/ml, others 10-fold concentrated culture supernatant of producers
# [4] = system: Caco-2 cells (human intestinal epithelial cells); test: Membrane strengthening experiment (TER recovery of barrier function after TNF-α); assay type: cell-based; conditions: result in words; FIG. 1A-1H
# [5] = system: Lactobacillus acidophilus; test: Antibacterial spectrum of bacteriocin, spot-on lawn method; assay type: cell-based; set-up: key: “+” to “+++++”: indicates the strength of antibacterial effect. The more “+”, the stronger the effect.; “+” to “+++++”: indicates the strength of antibacterial effect. The more “+”, the stronger the effect.; “+” to “+++++”: indicates the strength of antibacterial effect. The more “+”, the stronger the effect.; “+” to “+++++”: indicates the strength of antibacterial effect. The more “+”, the stronger the effect.; “+” to “+++++”: indicates the strength of antibacterial effect. The more “+”, the stronger the effect.; “ND”: indicates no effect detected (not detected); conditions: Nisin A and Duramycin 1 mg/ml, others 10-fold concentrated culture supernatant of producers
# [6] = system: Bifidobacterium thermophilum AJ110569; test: as above; assay type: cell-based; set-up: key: “+” to “+++++”: indicates the strength of antibacterial effect. The more “+”, the stronger the effect.; “+” to “+++++”: indicates the strength of antibacterial effect. The more “+”, the stronger the effect.; “+” to “+++++”: indicates the strength of antibacterial effect. The more “+”, the stronger the effect.; “+” to “+++++”: indicates the strength of antibacterial effect. The more “+”, the stronger the effect.; “+” to “+++++”: indicates the strength of antibacterial effect. The more “+”, the stronger the effect.; “ND”: indicates no effect detected (not detected); conditions: Nisin A and Duramycin 1 mg/ml, others 10-fold concentrated culture supernatant of producers
# Clostridium perfringens = assay type: cell-based; set-up: key: “+” to “+++++”: indicates the strength of antibacterial effect. The more “+”, the stronger the effect.; “+” to “+++++”: indicates the strength of antibacterial effect. The more “+”, the stronger the effect.; “+” to “+++++”: indicates the strength of antibacterial effect. The more “+”, the stronger the effect.; “+” to “+++++”: indicates the strength of antibacterial effect. The more “+”, the stronger the effect.; “+” to “+++++”: indicates the strength of antibacterial effect. The more “+”, the stronger the effect.; “ND”: indicates no effect detected (not detected); conditions: Nisin A and Duramycin 1 mg/ml, others 10-fold concentrated culture supernatant of producers
# [7] = Table 8, 0-3 week, 10 ppm, SE orally at 2 days of age, control group = 100%
substance,measurement,setting,value
"nisin A (ITSISLCTPGCKTGALMGCNMKTATCHCSIHVSK; not fully specified (some residues, bridges); also: lantibiotic (ring and dehydro residues not placed); UniProt P13068 24-57, looked up) [reagent manufactured by Sigma-Aldrich, nisin content 2.5% by mass, balance sodium chloride and denatured milk solids]",BWG,Salmonella enterica (SE); [7],101%
same,FCR,Salmonella enterica (SE); [7],100%
same,body weight gain effect and feed conversion ratio improvement effect,"Salmonella enterica (SE); result in words, Salmonella enterica infected broilers, test feed 21 days",no effect
same,Antibacterial spectrum (strength of antibacterial effect),[1],+++++
same,Antibacterial spectrum (strength of antibacterial effect),[2],+++++
same,Antibacterial spectrum (strength of antibacterial effect),Escherichia coli MG1655,++
same,Antibacterial spectrum (strength of antibacterial effect),[3],++++
same,function of strengthening the barrier function (membrane-strengthening ability),[4],observed to have the function of strengthening the barrier function
same,Antibacterial spectrum (strength of antibacterial effect),[5],++++
same,Antibacterial spectrum (strength of antibacterial effect),[6],+++++
same,Antibacterial spectrum (strength of antibacterial effect),Clostridium perfringens,+++++

# Source: US11857596B2, “Animal feed additive and animal feed” (priority 2018, dated 2024)
